Columns and labels:
rice [1] = experiment: Test C flooded paddy test; assay type: in vivo, Oryza sativa; settings: for Plant response rating, Rice: 500 g ai/ha, visual rating after 12 to 14 days
Summary of the method: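 Injury scored visually against controls on a 0 (no effect) to 100 (complete control) scale, 12 to 14 days after treatment in greenhouse. Flooded paddy plants treated at 2-leaf stage; postemergence plants at 1- to 4-leaf stage, 2 to 18 cm tall.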

ducksalad [2] = experiment: Test B flooded paddy test; assay type: in vivo, Heteranthera limosa; settings: 1000 g ai/ha, scale 0 to 100 (0 no effect, 100 complete control)
Summary of the method: (§1)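 Formulated test chemicals went onto postemergence plants measuring 2 to 18 cm, at one to four leaves. For the paddy assay, species had reached two leaves. Scoring took place 13–15 days later by eye, relative to untreated plants, using 0 for no effect up to 100 for full control.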

Surinam grass = experiment: Test B pre-/postemergence herbicide test; assay type: in vivo, Urochloa decumbens
Summary of the method: (§2)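 Visual rating, 0 (no effect) to 100 (complete control), versus untreated controls after 13–15 d in greenhouse. Pre- and postemergence applications (postemergence plants 2–18 cm, 1–4 leaves); flooded paddy arm at 2-leaf stage. Compounds in non-phytotoxic solvent plus surfactant.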

lambsquarters = experiment: Test B pre-/postemergence herbicide test; assay type: in vivo, Chenopodium album
Summary of the method: as §2

blackgrass = experiment: Test B postemergence herbicide test; assay type: in vivo, Alopecurus myosuroides
Summary of the method: as §1

corn = experiment: Test B pre-/postemergence herbicide test; assay type: in vivo, Zea mays
Summary of the method: as §2

large crabgrass = experiment: Test B pre-/postemergence herbicide test; assay type: in vivo, Digitaria sanguinalis
Summary of the method: as §2

pigweed = experiment: Test B pre-/postemergence herbicide test; assay type: in vivo, Amaranthus retroflexus
Summary of the method: as §2

barnyardgrass [3] = experiment: Test C flooded paddy test; assay type: in vivo, Echinochloa crus-galli; settings: for Plant response rating, Barnyardgrass: 500 g ai/ha, visual rating after 12 to 14 days
Summary of the method: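 Weeds and wheat were sprayed after emergence, at a height of 2 to 18 cm (1–4 leaves), and paddy barnyardgrass was flooded and treated at two leaves. Assessment took place 12–14 days later in the greenhouse on a 0-to-100 visual control scale. A dash means no result was obtained.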

rice [4] = experiment: Test B flooded paddy test; assay type: in vivo, Oryza sativa; settings: 1000 g ai/ha, scale 0 to 100 (0 no effect, 100 complete control)
Summary of the method: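 Read-out: visual comparison with controls, scored 0 to 100, where 100 means complete control and 0 no effect. Formulated chemicals were applied postemergence to plants 2–18 cm tall (1- to 4-leaf), or to flooded-paddy plants at the 2-leaf stage, then held 13 to 15 days under glass.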

morningglory = experiment: Test B pre-/postemergence herbicide test; assay type: in vivo, Ipomoea coccinea
Summary of the method: (§3)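 Plants compared with untreated controls 13–15 days post-treatment and given a visual 0–100 injury score. Applications: preemergence to seeds; postemergence at 1- to 4-leaf (2–18 cm); paddy species flooded, 2-leaf stage. Vehicle non-phytotoxic, surfactant included.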

wheat = experiment: Test B postemergence herbicide test; assay type: in vivo, Triticum aestivum; set-up: key to Wheat plant response rating: 0 = no effect, 100 = complete control
Summary of the method: (§4)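 After treating 2-leaf paddy plants or 2–18 cm postemergence plants (1 to 4 leaves) with formulated chemical, researchers kept them in a greenhouse for 13–15 days. Effects were judged visually versus controls: 0 indicates none, 100 total control.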

cocklebur = experiment: Test B pre-/postemergence herbicide test; assay type: in vivo, Xanthium strumarium
Summary of the method: as §3

wild oat = experiment: Test B postemergence herbicide test; assay type: in vivo, Avena fatua
Summary of the method: as §4

barnyardgrass [5] = experiment: Test B pre-/postemergence herbicide test; assay type: in vivo, Echinochloa crus-galli
Summary of the method: as §3

giant foxtail = experiment: Test B pre-/postemergence herbicide test; assay type: in vivo, Setaria faberi
Summary of the method: as §2

velvetleaf = experiment: Test B pre-/postemergence herbicide test; assay type: in vivo, Abutilon theophrasti
Summary of the method: as §2

ducksalad [6] = experiment: Test C flooded paddy test; assay type: in vivo, Heteranthera limosa; settings: for Plant response rating, Ducksalad: 500 g ai/ha, visual rating after 12 to 14 days
[7] = test system: small flower umbrella sedge; experiment: Test B flooded paddy test; assay type: in vivo, Cyperus difformis; settings: 1000 g ai/ha, scale 0 to 100 (0 no effect, 100 complete control)
Summary of the method: as §1

barnyardgrass [8] = experiment: Test B flooded paddy test; assay type: in vivo, Echinochloa crus-galli; settings: 1000 g ai/ha, scale 0 to 100 (0 no effect, 100 complete control)
Summary of the method: as §1

[9] = test system: smallflower umbrella sedge; experiment: Test C flooded paddy test; assay type: in vivo, Cyperus difformis; settings: for Plant response rating, Sedge, Umbrella: 500 g ai/ha, visual rating after 12 to 14 days
[10] = 62 g ai/ha, scale 0 to 100 (0 no effect, 100 complete control)
[11] = 125 g ai/ha, scale 0 to 100 (0 no effect, 100 complete control)
[12] = 250 g ai/ha, scale of 0 to 100, 0 is no effect, 100 is complete control
[13] = scale 0 to 100 (0 no effect, 100 complete control)
[14] = 500 g ai/ha; visual rating 0-100, 0 no effect, 100 complete control; preemergence
[15] = postemergence, 125 g ai/ha; visual rating, scale 0 (no effect) to 100 (complete control)
[16] = postemergence, 500 g ai/ha; visual rating, scale 0 (no effect) to 100 (complete control)
[17] = preemergence, 125 g ai/ha; 0 to 100 scale, 0 is no effect, 100 is complete control
[18] = 125 g ai/ha; 0 is no effect, 100 is complete control; preemergence
[19] = 125 g ai/ha; visual rating, scale 0 (no effect) to 100 (complete control); postemergence
[20] = 500 g ai/ha; visual rating, 0 = no effect, 100 = complete control; preemergence
[21] = postemergence, 500 g ai/ha; scale 0 to 100, 0 is no effect, 100 is complete control

CC(=O)c1cccc(NC(=O)c2cc(C(C)(C)C)nn2CC(F)(F)F)c1 [Compound 126]
30: Plant response rating, Crabgrass, Large (large crabgrass; [14]) | Morningglory plant response rating (morningglory; [16]) | Oat, Wild plant response rating (wild oat; [15]) | Barnyardgrass plant response rating (barnyardgrass [5]; [16]) | Foxtail, Giant plant response rating (giant foxtail; [16]) | Plant response rating, Ducksalad (ducksalad [6]; [13])
25: Plant response rating, Barnyardgrass (barnyardgrass [3]; [13]) | Ducksalad plant response rating (ducksalad [6]; [12])
100: Cocklebur plant response rating (cocklebur; [16])
60: Lambsquarters plant response rating (lambsquarters; [16]) | Plant response rating, Barnyardgrass (barnyardgrass [5]; [14])
90: Plant response rating, Lambsquarters (lambsquarters; [14])
50: Cocklebur plant response rating (cocklebur; [15]) | Oat, Wild plant response rating (wild oat; [16]) | Plant response rating, Sedge, Umbrella [9, 13]
70: Plant response rating, Pigweed (pigweed; [14])
20: Plant response rating, Surinam Grass (Surinam grass; [14]) | Surinam Grass plant response rating (Surinam grass; [15]) | Surinam Grass plant response rating (Surinam grass; [16]) | Corn plant response rating (corn; [16]) | Barnyardgrass plant response rating (barnyardgrass [3]; [12]) | Rice plant response rating (rice [4]; visual rating, 13 to 15 days) | Plant response rating, Morningglory (morningglory; [14]) | Foxtail, Giant plant response rating (giant foxtail; [15]) | Plant response rating, Velvetleaf (velvetleaf; [14]) | Sedge, Umbrella plant response rating [9, 11] | Sedge, Umbrella plant response rating [9, 12]
0: Rice plant response rating (rice [1]; [10]) | Rice plant response rating (rice [1]; [11]) | Rice plant response rating (rice [1]; [12]) | Plant response rating, Rice (rice [1]; [13]) | Plant response rating, Surinam Grass (Surinam grass; [17]) | Lambsquarters plant response rating (lambsquarters; [15]) | Plant response rating, Lambsquarters (lambsquarters; [17]) | Blackgrass plant response rating (blackgrass; [15]) | Blackgrass plant response rating (blackgrass; [16]) | Plant response rating, Corn (corn; [14]) | Corn plant response rating (corn; [15]) | Plant response rating, Corn (corn; [17]) | Plant response rating, Crabgrass, Large (large crabgrass; [17]) | Plant response rating, Pigweed (pigweed; [17]) | Barnyardgrass plant response rating (barnyardgrass [3]; [10]) | Barnyardgrass plant response rating (barnyardgrass [3]; 125 g ai/ha, scale of 0 to 100, 0 is no effect, 100 is complete control) | Morningglory plant response rating (morningglory; [15]) | Plant response rating, Morningglory (morningglory; [17]) | Wheat plant response rating (wheat; [15]) | Wheat plant response rating (wheat; [16]) | Plant response rating, Cocklebur (cocklebur; [14]) | Plant response rating, Cocklebur (cocklebur; [17]) | Barnyardgrass plant response rating (barnyardgrass [5]; [15]) | Plant response rating, Foxtail, Giant (giant foxtail; [14]) | Plant response rating, Foxtail, Giant (giant foxtail; [17]) | Velvetleaf plant response rating (velvetleaf; [15]) | Plant response rating, Velvetleaf (velvetleaf; [17]) | Ducksalad plant response rating (ducksalad [6]; [10]) | Sedge, Umbrella plant response rating [9, 10]
80: Ducksalad plant response rating (ducksalad [2]; visual rating, 13 to 15 days) | Sedge, Umbrella plant response rating ([7]; visual rating, 13 to 15 days)
10: Ducksalad plant response rating (ducksalad [6]; [11]) | Barnyardgrass plant response rating (barnyardgrass [8]; visual rating, 13 to 15 days)
40: Crabgrass, Large plant response rating (large crabgrass; [15]) | Crabgrass, Large plant response rating (large crabgrass; [16]) | Pigweed plant response rating (pigweed; [15]) | Pigweed plant response rating (pigweed; [16]) | Plant response rating, Barnyardgrass (barnyardgrass [5]; [17]) | Velvetleaf plant response rating (velvetleaf; [16])

CCNC(=O)c1cccc(NC(=O)c2nn(C(C)C)nc2CC)c1 [Compound 357]
45: Rice plant response rating (rice [1]; [12]) | Ducksalad plant response rating (ducksalad [6]; [12])
85: Sedge, Umbrella plant response rating [9, 11]
55: Plant response rating, Barnyardgrass (barnyardgrass [3]; [13])
10: Surinam Grass plant response rating (Surinam grass; [19]) | Crabgrass, Large plant response rating (large crabgrass; [21]) | Plant response rating (0 to 100 scale), Morningglory (morningglory; [18]) | Morningglory plant response rating (morningglory; [19]) | Cocklebur plant response rating (cocklebur; [19]) | Barnyardgrass plant response rating (barnyardgrass [5]; [21])
90: Plant response rating (0 to 100 scale), Lambsquarters (lambsquarters; [18]) | Sedge, Umbrella plant response rating [9, 12]
80: Ducksalad plant response rating (ducksalad [2]) | Plant response rating, Surinam Grass (Surinam grass; [20]) | Plant response rating, Corn (corn; [20]) | Plant response rating, Barnyardgrass (barnyardgrass [5]; [20]) | Sedge, Umbrella plant response rating [7]
30: Plant response rating (0 to 100 scale), Surinam Grass (Surinam grass; [18]) | Lambsquarters plant response rating (lambsquarters; [19]) | Blackgrass plant response rating (blackgrass; [21]) | Barnyardgrass plant response rating (barnyardgrass [3]; [12]) | Morningglory plant response rating (morningglory; [21]) | Plant response rating, Cocklebur (cocklebur; [20]) | Oat, Wild plant response rating (wild oat; [21]) | Plant response rating (0 to 100 scale), Barnyardgrass (barnyardgrass [5]; [18]) | Foxtail, Giant plant response rating (giant foxtail; [19]) | Ducksalad plant response rating (ducksalad [6]; 62 g ai/ha, scale 0 to 100) | Ducksalad plant response rating (ducksalad [6]; [11])
40: Pigweed plant response rating (pigweed; [21]) | Foxtail, Giant plant response rating (giant foxtail; [21]) | Sedge, Umbrella plant response rating ([9]; 62 g ai/ha, scale 0 to 100)
95: Plant response rating, Ducksalad (ducksalad [6]; [13]) | Plant response rating, Sedge, Umbrella [9, 13]
60: Lambsquarters plant response rating (lambsquarters; [21])
70: Plant response rating, Rice (rice [1]; [13]) | Plant response rating (0 to 100 scale), Crabgrass, Large (large crabgrass; [18]) | Rice plant response rating (rice [4]) | Plant response rating, Morningglory (morningglory; [20]) | Barnyardgrass plant response rating (barnyardgrass [8])
20: Surinam Grass plant response rating (Surinam grass; [21]) | Corn plant response rating (corn; [21]) | Pigweed plant response rating (pigweed; [19]) | Cocklebur plant response rating (cocklebur; [21]) | Plant response rating (0 to 100 scale), Foxtail, Giant (giant foxtail; [18]) | Velvetleaf plant response rating (velvetleaf; [19]) | Velvetleaf plant response rating (velvetleaf; [21])
100: Plant response rating, Lambsquarters (lambsquarters; [20]) | Plant response rating, Crabgrass, Large (large crabgrass; [20]) | Plant response rating (0 to 100 scale), Pigweed (pigweed; [18]) | Plant response rating, Pigweed (pigweed; [20]) | Plant response rating, Foxtail, Giant (giant foxtail; [20])
0: Rice plant response rating (rice [1]; 62 g ai/ha, scale 0 to 100) | Rice plant response rating (rice [1]; [11]) | Blackgrass plant response rating (blackgrass; [19]) | Plant response rating (0 to 100 scale), Corn (corn; [18]) | Corn plant response rating (corn; [19]) | Crabgrass, Large plant response rating (large crabgrass; [19]) | Barnyardgrass plant response rating (barnyardgrass [3]; [10]) | Barnyardgrass plant response rating (barnyardgrass [3]; [11]) | Wheat plant response rating (wheat; [19]) | Wheat plant response rating (wheat; [21]) | Plant response rating (0 to 100 scale), Cocklebur (cocklebur; [18]) | Oat, Wild plant response rating (wild oat; [19]) | Barnyardgrass plant response rating (barnyardgrass [5]; [19]) | Plant response rating (0 to 100 scale), Velvetleaf (velvetleaf; [18])
